In the supplement of paper PMC10307832:

Experiments:
Assay in all cases: relative viability (nuclei count vs DMSO), 5 days (fraction); higher = more cells survive
[1] = compound: CC1(COc2ccc3c(c2)ncn3-c2ccc3cccc(N4CCC(N)CC4)c3n2)COC1 [Crenolanib] + CC(=O)Nc1cccc(-n2c(=O)n(C3CC3)c(=O)c3c(Nc4ccc(I)cc4F)n(C)c(=O)c(C)c32)c1 [Trametinib] (partner 0.02 µM)
In short: (§1)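 Cells from lung cancer lines were seeded into 1536-well plates and, one day later, dosed by pin tool. Treatments were either a single drug or a fixed dose of an anchor drug with five library-drug doses (not always all listed) in √10 steps. After 5 days, nuclei were stained in a one-step fixation (final 0.05% Triton X-100, 1% formaldehyde, 1 ug/ml Hoechst) and counted on 4× images, and relative viability is the treated-to-vehicle nuclei ratio, as the median of duplicate plates.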

[2] = compound: CC1(COc2ccc3c(c2)ncn3-c2ccc3cccc(N4CCC(N)CC4)c3n2)COC1 [Crenolanib] + CS(=O)(=O)N1CCN(Cc2cc3nc(-c4cccc5[nH]ncc45)nc(N4CCOCC4)c3s2)CC1 [Pictilisib] (partner 1 µM)
In short: as §1

[3] = compound: O=C1NC(=O)[C@@H](c2cn3c4c(cccc24)CCC3)[C@@H]1c1c[nH]c2ccccc12 [Tivantinib] + CS(=O)(=O)CCNCc1ccc(-c2ccc3ncnc(Nc4ccc(OCc5cccc(F)c5)c(Cl)c4)c3c2)o1 [Lapatinib] (partner 2 µM)
In short: as §1

[4] = compound: O=C1NC(=O)[C@@H](c2cn3c4c(cccc24)CCC3)[C@@H]1c1c[nH]c2ccccc12 [Tivantinib] + O=C(c1cc(Cc2n[nH]c(=O)c3ccccc23)ccc1F)N1CCN(C(=O)C2CC2)CC1 [Olaparib] (partner 8 µM)
In short: as §1

For UMC-11, the relative viability ([1]; first compound 0.01 µM) was 0.74, the relative viability ([1]; first compound 0.03162 µM) was 0.676 and the relative viability ([1]; first compound 0.1 µM) was 0.683. For the same cell line, the relative viability ([1]; first compound 0.3162 µM) was 0.68, the relative viability ([1]; first compound 1 µM) was 0.684 and the relative viability ([2]; first compound 0.01 µM) was 0.76. It also gave a relative viability ([2]; first compound 0.03162 µM) of 0.834, a relative viability ([2]; first compound 0.1 µM) of 0.787 and a relative viability ([2]; first compound 0.3162 µM) of 0.848. The relative viability ([2]; first compound 1 µM) was 0.733, the relative viability ([3]; first compound 0.01 µM) was 1.03 and the relative viability ([3]; first compound 0.03162 µM) was 0.673. It also gave a relative viability ([3]; first compound 0.1 µM) of 1.03, a relative viability ([3]; first compound 0.3162 µM) of 1.08 and a relative viability ([4]; first compound 0.01 µM) of 0.354. The relative viability ([4]; first compound 0.03162 µM) was 0.341, the relative viability ([4]; first compound 0.1 µM) was 0.365 and the relative viability ([4]; first compound 0.3162 µM) was 0.362.
